Where two headings read alike, the source gives them in different places. Marks after values point to notes of the source that are not given here.
Assays:
[1] = tested on: polychromatic erythrocytes in bone marrow of mice; settings: for Number of micronucleus (in Ge) / Micronucleus rate: 50 mg/kg•bw, positive control; for Number of micronucleus (in Ge): 5000 cells examined; for Micronucleus rate: P<0.01 vs negative control
Protocol: The walnut extract, the wormwood extract, and the clove bud extract were respectively subjected to a water bath at 70°C for 1 hour, soaked for 12 hours, and concentrated for testing.
(§1) The healthy Kunming mice provided by the Experimental Animal Center of the National Institute for the Control of Pharmaceutical and Biological Products were selected.
The test was carried out via oral gavage and the administration was performed twice at intervals of 24 hrs. 50 mice weighing 25-30 g were randomly divided into 5 groups according to body weight, 10 in each group, half male and half female. […] The doses of the anti-tumor pharmaceutical product for combined immunization according to the present invention were 1.25, 2.50, and 5.00 g/kg•bw, respectively, and the desired concentrations were adjusted with distilled water. The animals were sacrificed by cervical dislocation six hours after the last administration of the anti-tumor pharmaceutical product for combined immunization according to the present invention. The bone marrow of sternum was acquired and diluted with calf serum, smeared, fixed with methanol, and stained with Giemsa. Under the light microscope, 1000 polychromatic erythrocytes (PRC) were counted per animal, and the incidence of micronucleus was calculated by the permillage of micronucleus-containing PRC and statistically processed.

[2] = all dose groups, statistical comparison with distilled water group

Protocol for sperm: Test materials: The walnut extract, the wormwood extract, and the clove bud extract were all prepared in the same manner as in Example 1. The walnut extract, the wormwood extract, and the clove bud extract were respectively subjected to a water bath at 70°C for 1 hour, soaked for 12 hours, and concentrated for testing.
as §1
Fifty sexually mature male mice weighing 30-35 g were randomly divided into 5 groups. […] The doses of the anti-tumor pharmaceutical product for combined immunization according to the present invention were 1.25, 2.50, and 5.00 g/kg•bw, and the desired concentration were adjusted with distilled water. The mice were administered via oral gavage once a day for 5 days, and the animals were sacrificed 30 days after the last gavage. The epididymis was acquired and sectioned and stained with eosin. Five animals were counted in each group and 1000 intact sperm were counted per animal. The incidence of sperm abnormality (in percentage) was calculated and statistically processed.

Compound: O=P1(N(CCCl)CCCl)NCCCO1 (centres unmarked) [cp, cyclophosphamide]
- Number of micronucleus (in Ge) ([1]; Female mice): 144
- Micronucleus rate ([1]; Female mice): 28.8* ‰
- Number of micronucleus (in Ge) ([1]; Male mice): 164
- Micronucleus rate ([1]; Male mice): 32.8* ‰
- difference in micronucleus rate from the negative control group [1, 2]: extremely significant
- difference in incidence of sperm abnormality from the negative control group (sperm; [2]): extremely significant
- Number of abnormal sperms (in Ge) (sperm; male mice, 40 mg/kg•bw, positive control, 5000 sperms examined): 517
- Rate of sperm abnormality (sperm; male mice, 40 mg/kg•bw, positive control, P<0.01 vs negative control): 10.34* %
